Data on 11 compounds can be found in patent US20130109682A1, “CYCLIC ETHER COMPOUNDS USEFUL AS KINASE INHIBITORS” (NOVARTIS AG, priority 2010, published 2013).

The target of one assay is PIM1 (Homo sapiens, UniProt P11309). The assay can be described thus: KinaseGlo Pim1 ATP depletion assay. Type of assay: biochemical. Here is the method:
KinaseGlo Pim1 ATP Depletion Assay
The activity of PIM1 is measured using a luciferase-luciferin based ATP detection reagent to quantify ATP depletion resulting from kinase-catalyzed phosphoryl transfer to a peptide substrate. Compounds to be tested are dissolved in 100% DMSO and directly distributed into white 384-well plates at 0.5 μA per well. To start the reaction, 10 μA of 5 nM Pim1 kinase and 80 μM BAD peptide (RSRHSSYPAGT-OH) in assay buffer (50 mM HEPES pH 7.5, 5 mM MgCl2, 1 mM DTT, 0.05% BSA) is added into each well. After 15 minutes, 10 μl of 40 μM ATP in assay buffer is added. Final assay concentrations are 2.5 nM PIM1, 20 μM ATP, 40 μM BAD peptide and 2.5% DMSO. The reaction is performed until approximately 50% of the ATP is depleted, then stopped with the addition of 20 μA KinaseGlo Plus (Promega Corporation) solution. The stopped reaction is incubated for 10 minutes and the remaining ATP detected via luminescence on the Victor2 (Perkin Elmer). […] IC50, the half maximal inhibitory concentration, represents the concentration of a test compound that is required for 50% inhibition of its target in vitro.

The target in the next assay is PIM2 (Homo sapiens, UniProt Q9P1W9). As to the kind of experiment: KinaseGlo Pim2 ATP depletion assay. Type of assay: biochemical. Here is the method:
KinaseGlo Pim2 ATP Depletion Assay
The activity of PIM2 is measured using a luciferase-luciferin based ATP detection reagent to quantify ATP depletion resulting from kinase-catalyzed phosphoryl transfer to a peptide substrate. Compounds to be tested are dissolved in 100% DMSO and directly distributed into white 384-well plates at 0.5 piper well. To start the reaction, 10 μl of 10 nM Pim2 kinase and 20 μM BAD peptide (RSRHSSYPAGT-OH) in assay buffer (50 mM HEPES pH 7.5, 5 mM MgCl2, 1 mM DTT, 0.05% BSA) is added into each well. After 15 minutes, 10 μl of 8 μM ATP in assay buffer is added. Final assay concentrations are 5 nM PIM2, 4 μM ATP, 10 μM BAD peptide and 2.5% DMSO. The reaction is performed until approximately 50% of the ATP is depleted, then stopped with the addition of 20 μl KinaseGlo Plus (Promega Corporation) solution. The stopped reaction is incubated for 10 minutes and the remaining ATP detected via luminescence on the Victor2 (Perkin Elmer).

In a further assay the target is PIM3 (Homo sapiens, UniProt Q86V86). As to the kind of experiment: KinaseGlo Pim3 ATP depletion assay. In kind it is biochemical. The protocol: KinaseGlo Pim3 ATP Depletion Assay
The activity of PIM3 is measured using a luciferase-luciferin based ATP detection reagent to quantify ATP depletion resulting from kinase-catalyzed phosphoryl transfer to a peptide substrate. Compounds to be tested are dissolved in 100% DMSO and directly distributed into white 384-well plates at 0.5 μl per well. To start the reaction, 10 μl of 10 nM Pim3 kinase and 200 μM BAD peptide (RSRHSSYPAGT-OH) in assay buffer (50 mM HEPES pH 7.5, 5 mM MgCl2, 1 mM DTT, 0.05% BSA) is added into each well. After 15 minutes, 10 μl of 80 μM ATP in assay buffer is added. Final assay concentrations are 5 nM […], 40 μM ATP, 100 μM BAD peptide and 2.5% DMSO. The reaction is performed until approximately 50% of the ATP is depleted, then stopped by the addition of 20 μl KinaseGlo Plus (Promega Corporation) solution. The stopped reaction is incubated for 10 minutes and the remaining ATP detected via luminescence on the Victor2 (Perkin Elmer).

Another assay addresses GSK3β (Homo sapiens, UniProt P49841). As to the kind of experiment: GSK3β ATP depletion assay. Type of assay: biochemical. The conditions noted are these: read-out: GSK3b IC50. The protocol:
GSK3β ATP Depletion Assay
The activity of GSK3β is measured using a luciferase-luciferin based ATP detection reagent to quantify ATP depletion resulting from kinase-catalyzed phosphoryl transfer to a peptide substrate. Compounds to be tested are dissolved in 100% DMSO and directly distributed into white 384-well plates at 0.5 μl per well. To start the reaction, 10 μl of 10 nM GSK3B kinase and 20 μM biotinylated CREB peptide ([…](pS)YR-NH2) in assay buffer (50 mM TRIS pH 7.5, 15 mM MgCl2, 1 mM DTT, 0.1% BSA) is added into each well. After 15 minutes, 10 μl of 2 μM ATP in assay buffer is added. Final assay concentrations are 5 nM GSK3B, […], 10 μM b-CREB peptide and 2.5% DMSO. The reaction is performed until approximately 50% of the ATP is depleted, then stopped with the addition of 20 μl KinaseGlo (Promega Corporation) solution. The stopped reaction is incubated for 10 minutes and the remaining ATP is detected via luminescence on the Victor2 (Perkin Elmer).

The test system of assay [1] is KMS11 (human myeloma cell line). As to the kind of experiment: Cell proliferation assay (CellTiter-Glo), KMS11. Conditions: Homo sapiens, KMS-11; KMS11-Luc cells. In kind it is cell-based. The protocol:
KMS11 (human myeloma cell line), were cultured in IMDM supplemented with 10% FBS, sodium pyruvate and antibiotics. Cells were plated in the same medium at a density of 2000 cells per well into 96 well tissue culture plates, with outside wells vacant, on the day of assay. MMl.s (human myeloma cell line), were cultured in RPMI1640 supplemented with 10% FBS, sodium pyruvate and antibiotics. Cells were plated in the same medium at a density of 5000 cells per well into 96 well tissue culture plates, with outside wells vacant, on the day of assay.
Test compounds supplied in DMSO were diluted into DMSO at 500 times the desired final concentrations before dilution into culture media to 2 times final concentrations. Equal volumes of 2× compounds were added to the cells in 96 well plates and incubated at 37° C. for 3 days.
After 3 days plates were equilibrated to room temperature and equal volume of CellTiter-Glow Reagent (Promega) was added to the culture wells. The plates were agitated briefly and luminescent signal was measured with luminometer.
Using the procedures of Cell Proliferation Assay, the EC50 concentration of indicated compounds of the examples in were determined in KMS11 cells as shown in Table 4.

Some results are limits rather than exact numbers.

PIM1, sequence (P11309 whole entry): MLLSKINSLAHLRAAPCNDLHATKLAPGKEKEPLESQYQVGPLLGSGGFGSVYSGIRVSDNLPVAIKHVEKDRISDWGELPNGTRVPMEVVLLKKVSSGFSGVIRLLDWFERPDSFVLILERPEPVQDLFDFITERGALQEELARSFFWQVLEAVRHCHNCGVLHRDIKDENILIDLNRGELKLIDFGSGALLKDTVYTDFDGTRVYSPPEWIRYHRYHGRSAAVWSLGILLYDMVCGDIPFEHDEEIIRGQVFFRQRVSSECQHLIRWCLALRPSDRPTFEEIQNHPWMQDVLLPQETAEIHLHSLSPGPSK
GSK3β, sequence (P49841 whole entry, species assumed): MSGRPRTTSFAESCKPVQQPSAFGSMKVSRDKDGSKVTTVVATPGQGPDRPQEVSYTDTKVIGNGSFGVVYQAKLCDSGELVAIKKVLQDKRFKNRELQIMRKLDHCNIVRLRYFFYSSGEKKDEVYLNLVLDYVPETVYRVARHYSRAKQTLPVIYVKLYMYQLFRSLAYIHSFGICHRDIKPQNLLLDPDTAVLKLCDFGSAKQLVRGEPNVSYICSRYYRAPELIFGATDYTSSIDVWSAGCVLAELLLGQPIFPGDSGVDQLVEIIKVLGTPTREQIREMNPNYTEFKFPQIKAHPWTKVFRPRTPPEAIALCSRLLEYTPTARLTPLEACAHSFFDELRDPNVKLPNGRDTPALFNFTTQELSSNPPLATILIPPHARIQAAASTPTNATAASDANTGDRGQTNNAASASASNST
PIM2, sequence (Q9P1W9 whole entry): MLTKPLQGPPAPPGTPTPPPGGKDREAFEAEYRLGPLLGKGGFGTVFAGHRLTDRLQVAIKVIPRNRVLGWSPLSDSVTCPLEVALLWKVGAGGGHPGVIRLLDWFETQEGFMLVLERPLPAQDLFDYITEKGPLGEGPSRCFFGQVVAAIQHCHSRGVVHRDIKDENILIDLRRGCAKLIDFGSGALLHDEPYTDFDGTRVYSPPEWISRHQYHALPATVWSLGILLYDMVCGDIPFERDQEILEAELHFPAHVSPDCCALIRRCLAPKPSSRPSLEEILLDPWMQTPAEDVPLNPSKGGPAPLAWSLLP

`C[C@H]1O[C@@H](c2ccncc2NC(=O)c2ccc(F)c(-c3c(F)cccc3F)n2)[C@H](O)[C@@H](O)[C@]1(C)O` (stereo in doubt) [Example 81, 6-(2,6-difluorophenyl)-5-fluoro-N-(4-((2S,3R,4R,5S,6R)-3,4,5-trihydroxy-5,6-dimethyltetrahydro-2H-pyran-2-yl)pyridin-3-yl)picolinamide]: the IC50 against PIM1 came to 0.031 µM; at PIM2, 0.72 µM; against PIM3 it was 0.044 µM; on GSK3β it was 0.854 µM. For the same compound, the EC50 in assay [1] was above 10 µM.

Turning to `C[C@@H]1O[C@H](c2ccncc2NC(=O)c2ccc(F)c(-c3c(F)cccc3F)n2)[C@@H](O)[C@H](O)[C@@]1(C)O` (stereo in doubt) [Example 82, 6-(2,6-difluorophenyl)-5-fluoro-N-(4-((2R,3S,4S,5R,6S)-3,4,5-trihydroxy-5,6-dimethyltetrahydro-2H-pyran-2-yl)pyridin-3-yl)picolinamide], the IC50 against PIM1 worked out at 0.002 µM; against PIM2, 0.036 µM; against PIM3, 0.007 µM; at GSK3β, 1.17 µM. The same compound displayed a 50% effective concentration (EC50) in assay [1] above 10 µM.

For `C[C@H]1[C@H](C)O[C@H](c2ccncc2NC(=O)c2csc(-c3c(F)cccc3F)n2)C[C@@H]1O` (stereo in doubt) [Example 94, 2-(2,6-difluorophenyl)-N-(4-((2S,4S,5R,6S)-4-hydroxy-5,6-dimethyltetrahydro-2H-pyran-2-yl)pyridin-3-yl)thiazole-4-carboxamide], the IC50 against PIM1 is 0.001 µM; against PIM2, 0.246 µM; against PIM3, 0.009 µM; on GSK3β, 0.011 µM. In addition, the response in assay [1] was half-maximal at 4.2 µM (EC50).

Turning to `C[C@H]1[C@H](O)C[C@H](c2ccncc2NC(=O)c2csc(-c3c(F)cccc3F)n2)O[C@@H]1C` (stereo in doubt) [Example 95, 2-(2,6-difluorophenyl)-N-(4-((2R,4R,5S,6R)-4-hydroxy-5,6-dimethyltetrahydro-2H-pyran-2-yl)pyridin-3-yl)thiazole-4-carboxamide], the IC50 at PIM1 amounted to 0.008 µM; on PIM2 it was 2.17 µM; on PIM3, 0.08 µM; on GSK3β, 0.032 µM. Also, in assay [1], the EC50 is above 10 µM.

In the case of `C[C@H]1[C@H](C)O[C@H](c2ccncc2NC(=O)c2ccc(F)c(-c3c(F)cccc3F)n2)C[C@@H]1O` (stereo in doubt) [Example 96, 6-(2,6-difluorophenyl)-5-fluoro-N-(4-((2S,4S,5R,6S)-4-hydroxy-5,6-dimethyltetrahydro-2H-pyran-2-yl)pyridin-3-yl)picolinamide], the IC50 was 0.001 µM at PIM1, 0.016 µM at PIM2, 0.003 µM against PIM3 and 0.141 µM at GSK3β. For the same compound, in assay [1], the EC50 was determined as 3.9 µM.

On to `C[C@H]1[C@H](O)C[C@H](c2ccncc2NC(=O)c2ccc(F)c(-c3c(F)cccc3F)n2)O[C@@H]1C` (stereo in doubt) [Example 97, 6-(2,6-difluorophenyl)-5-fluoro-N-(4-((2R,4R,5S,6R)-4-hydroxy-5,6-dimethyltetrahydro-2H-pyran-2-yl)pyridin-3-yl)picolinamide], for which the IC50 on PIM1 was determined as 0.005 µM; against PIM2, 0.263 µM; against PIM3 it was 0.037 µM; at GSK3β, 0.313 µM. The EC50 in assay [1] is above 10 µM.

Consider `C[C@H]1O[C@@H](c2ccncc2NC(=O)c2csc(-c3c(F)cccc3F)n2)C[C@@H](O)[C@]1(C)O` (stereo in doubt) [Example 109, 2-(2,6-difluorophenyl)-N-(4-((2R,4R,5S,6R)-4,5-dihydroxy-5,6-dimethyltetrahydro-2H-pyran-2-yl)pyridin-3-yl)thiazole-4-carboxamide], for which the IC50 against PIM1 was determined as 0.068 µM; at PIM2 it was 3.42 µM; against PIM3 it was 0.088 µM; on GSK3β, 0.272 µM. In assay [1], this compound showed a concentration for a half-maximal effect (EC50) above 10 µM.

Take `C[C@H]1O[C@@H](c2ccncc2NC(=O)c2ccc(F)c(-c3c(F)cccc3F)n2)C[C@@H](O)[C@]1(C)O` (stereo in doubt) [Example 110, 6-(2,6-difluorophenyl)-N-(4-((2R,4R,5S,6R)-4,5-dihydroxy-5,6-dimethyltetrahydro-2H-pyran-2-yl)pyridin-3-yl)-5-fluoropicolinamide]: the IC50 is 0.019 µM on PIM1, 0.347 µM against PIM2, 0.016 µM against PIM3 and 0.659 µM on GSK3β. The EC50 in assay [1] is above 10 µM.

With `C[C@@H]1O[C@H](c2ccncc2NC(=O)c2csc(-c3c(F)cccc3F)n2)C[C@H](O)[C@@]1(C)O` (stereo in doubt) [Example 111, 2-(2,6-difluorophenyl)-N-(4-((2S,4S,5R,6S)-4,5-dihydroxy-5,6-dimethyltetrahydro-2H-pyran-2-yl)pyridin-3-yl)thiazole-4-carboxamide], the half-inhibitory concentration (IC50) was determined as 0.001 µM against PIM1, 0.043 µM against PIM2, 0.002 µM on PIM3 and 0.026 µM on GSK3β. In assay [1], the EC50 is above 10 µM.

Turning to `C[C@@H]1C[C@H](O)C[C@H](c2ccncc2NC(=O)c2csc(-c3c(F)cccc3F)n2)O1` (stereo in doubt) [Example 125, 2-(2,6-difluorophenyl)-N-(4-((2R,4S,6R)-4-hydroxy-6-methyltetrahydro-2H-pyran-2-yl)pyridin-3-yl)thiazole-4-carboxamide], the IC50 against PIM1 came out at 0.01 µM; against PIM2 it was 2.32 µM; on PIM3, 0.165 µM; on GSK3β, 0.104 µM. In assay [1], this compound returned an EC50 above 10 µM.

As for `C[C@@H]1C[C@H](O)C[C@H](c2ccncc2NC(=O)c2ccc(F)c(-c3c(F)cccc3F)n2)O1` (stereo in doubt) [Example 126, 6-(2,6-difluorophenyl)-5-fluoro-N-(4-((2R,4S,6R)-4-hydroxy-6-methyltetrahydro-2H-pyran-2-yl)pyridin-3-yl)picolinamide], the IC50 at PIM1 was 0.004 µM; against PIM2, 0.213 µM; on PIM3, 0.052 µM; at GSK3β it was 0.548 µM. This compound also yielded an EC50 in assay [1] above 10 µM.
